# Experimental data published in patent US20240033228A1, “MESOPOROUS NANOPARTICLES SYSTEM TO INCREASE THE BIOFILM ERADICATION ACTIVITY BY MEANS OF THE CARRYING AND THE ADMINISTRATION OF AT LEAST ONE ACTIVE INGREDIENT AND RELATED PRODUCTION METHOD” (Brenta S.r.l., priority 2020, published 2024).
# How the values were obtained:
# [1] = water; cited from earlier work
# [2] = footnote a not given; cited from earlier work
# K. pneumoniae = test: Plate antimicrobial tests; assay type: cell-based; settings: plate test; strain not given
# Description: (§1) Plate antimicrobial tests were conducted to verify the inactivity of the nanoparticles and to confirm that the antibacterial activity is linked to being loaded with at least one API. The negative control corresponds to S. aureus and K. pneumoniae without API.
# S. aureus = test: Plate antimicrobial tests; assay type: cell-based; settings: plate test; strain not given
# Description: as §1
# K. pneumoniae biofilm = test: Biofilm eradication test (MBEC assay with Calgary Biofilm Device); assay type: cell-based, Klebsiella pneumoniae
# Description: The eradication tests were performed by adding free or loaded and/or supported API after the maturation of a biofilm for 24 hours. VCN was tested against S. aureus and NTF against […]. […] The log reduction was calculated according to the following formula: Log reduction (LR)=Log10(mean number of CPUs without […] number of CFUs after treatment), where CFUs are Colony Formation Units. Correspondingly, the eradication percentage P was calculated according to the following formula: […] Testing was performed by MBEC assay with Calgary Biofilm Device.
# S. aureus biofilm = test: as above; assay type: cell-based, Staphylococcus aureus
# Description: The eradication tests were performed by adding free or loaded and/or supported API after the maturation of a biofilm for 24 hours.
# VCN was tested against S. aureus and NTF against T. pneumoniae.
# The log reduction was calculated according to the following formula:
# Log reduction (LR)=Log10(mean number of CPUs without reatment)/(mean number of CFUs after treatment), where CFUs are Colony Formation Units.
# Correspondingly, the eradication percentage P was calculated according to the following formula: […]
# Testing was performed by MBEC assay with Calgary Biofilm Device.
compound,measurement,setting,value
COc1ccc2c(c1)c(CC(=O)O)c(C)n2C(=O)c1ccc(Cl)cc1 [INDM],Solubility H2O,[1],80 µg/mL
same,LogP,[2],4.27
"CC(=O)N[C@@H](CS)C(=O)O [NAC, N-acetyl-L-cysteine]",concentration below which no antibacterial activity is exhibited,K. pneumoniae,1 to 2 mg/mL
same,concentration below which no antibacterial activity is exhibited,S. aureus,1 to 2 mg/mL
same,LogP,[2],−0.03
"O=C1CN(/N=C/c2ccc([N+](=O)[O-])o2)C(=O)N1 [NTF, Nitrofurantoin]",Log Reduction Log (CFU/ml) ± SD,"K. pneumoniae biofilm; K. pneumoniae preformed biofilm (24 hours), highest concentration tested",2.5 ± 1.0 Log (CFU/ml)
same,P (%) eradication percentage,"K. pneumoniae biofilm; K. pneumoniae preformed biofilm, P=[1−10^−LR]*100",99.7%
same,Solubility H2O,[1],80 µg/mL
"CN[C@H](CC(C)C)C(=O)N[C@H]1C(=O)N[C@@H](CC(N)=O)C(=O)N[C@H]2C(=O)N[C@H]3C(=O)N[C@H](C(=O)N[C@H](C(=O)O)c4cc(O)cc(O)c4-c4cc3ccc4O)[C@H](O)c3ccc(c(Cl)c3)Oc3cc2cc(c3O[C@@H]2O[C@H](CO)[C@@H](O)[C@H](O)[C@H]2O[C@H]2C[C@](C)(N)[C@H](O)[C@H](C)O2)Oc2ccc(cc2Cl)[C@H]1O [VCN, vancomycin]",Log Reduction Log (CFU/ml) ± SD,"S. aureus biofilm; S. aureus preformed biofilm (24 hours), highest concentration tested",2.0 ± 0.4 Log (CFU/ml)
same,P (%) eradication percentage,"S. aureus biofilm; S. aureus preformed biofilm, P=[1−10^−LR]*100",99.0%
same,Solubility H2O,[1],>50000 µg/mL
